Patent US20070213359A1 (ACADIA Pharmaceuticals Inc., priority 2005, published 2007)
Read-outs that look alike come from different tables or passages of the source.

Target: Ghrelin receptor (Homo sapiens, UniProt Q92847)
Assay: Receptor Selection and Amplification Technology (R-SAT) assay
Format: cell-based
Set-up: expressed in transfected cells; host or cells: NIH3T3
Settings: for IC50: negative logarithm of ligand concentration causing 50% inhibition of constitutive receptor response, transfected NIH3T3 cells, '—' not defined (nd used separately), read-out: RSAT pIC50 (converted); for Emax: read-out: RSAT Eff(%)
[1] = percent inhibition at saturating ligand, normalized to reference ligand Substance P analog = 100%

Chain of Ghrelin receptor (Q92847 whole entry): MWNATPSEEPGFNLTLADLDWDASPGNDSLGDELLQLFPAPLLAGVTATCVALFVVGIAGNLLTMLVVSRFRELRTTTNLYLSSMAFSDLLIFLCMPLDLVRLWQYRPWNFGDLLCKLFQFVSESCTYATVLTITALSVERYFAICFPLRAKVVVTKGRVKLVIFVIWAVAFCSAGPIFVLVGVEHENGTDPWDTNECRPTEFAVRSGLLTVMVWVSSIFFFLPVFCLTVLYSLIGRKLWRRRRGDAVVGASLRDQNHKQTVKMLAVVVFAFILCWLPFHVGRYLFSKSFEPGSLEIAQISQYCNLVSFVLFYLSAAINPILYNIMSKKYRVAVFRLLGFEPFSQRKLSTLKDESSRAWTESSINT

| SMILES | IC50 | Emax [1] | Emax |
| --- | --- | --- | --- |
| COc1cccc2c(C(C)=O)cn(CC(C)CN3CCN(Cc4ccc(Cl)cc4Cl)CC3)c12 (stereo not shown) | 200 nM | 78% | – |
| CC(=O)c1cn(CCCN2CCC(c3nc(-c4cccnc4)no3)CC2)c2c(C)cccc12 | 200 nM | 103% | – |
| CC(=O)c1cn(CC(O)CN2CCC(c3nc4ccccc4s3)CC2)c2ccccc12 (stereo not shown) | 200 nM | 58% | – |
| CC(=O)c1cn(CCCN2CCN(CCOc3ccccc3)CC2)c2c(Cl)cccc12 | 200 nM | 91% | – |
| CCCCC(=O)c1cn(CCCN2C3CCC2CC(OCC2CC2)C3)c2ccc(OC)cc12 (stereo not shown) | 200 nM | – | 132% |
| CCc1cccc2c(C(C)=O)cn(CCCN3C4CCC3CC(Oc3ccc(F)cc3)C4)c12 (stereo not shown) | 200 nM | 98% | – |
| CC(=O)c1cn(CC(O)CN2CCC(Oc3ccc(F)cc3)CC2)c2ccccc12 (stereo not shown) | 200 nM | 74% | – |
| COc1ccc2c(C(C)=O)cn(CCCN3CCC(Oc4ccccc4Cl)CC3)c2c1 | 251 nM | 88% | – |
| CC(=O)c1cn(CCN2C3CCC2CC(OCC2CC2)C3)c2ccccc12 (stereo not shown) | 251 nM | 54% | – |
| CC(=O)c1cn(CCCN2CCN(C(C)c3ccccc3)CC2)c2cc(Br)ccc12 (stereo not shown) | 251 nM | 93% | – |
| CC(=O)c1cn(CCCN2C3CCC2CC(OCC2CC2)C3)c2ccc(Br)cc12 (stereo not shown) | 251 nM | 102% | – |
| CCCON1CCN(CCCn2cc(C(=O)C(F)(F)F)c3ccccc32)CC1 | 251 nM | 99% | – |
| CCc1cccc2c(C(C)=O)cn(CCCN3CCN(Cc4ccc(Cl)cc4Cl)CC3)c12 | 251 nM | 106% | – |
| CC(=O)c1cn(CCCN2CCC(Oc3ccccc3Cl)CC2)c2c(Cl)cccc12 | 251 nM | 97% | – |
| CCCCC[C@H]1C[C@H]2CC[C@@H](C1)N2CCCn1cc(C(C)=O)c2cccc(C)c21 | 251 nM | 105% | – |
| CC(c1ccccc1)N1CCN(CCCn2cc(C(=O)C(F)(F)F)c3ccccc32)CC1 (stereo not shown) | 251 nM | 92% | – |
| O=C(c1cn(CCCN2C3CCC2CC(Oc2ccc(Cl)cc2)C3)c2ccccc12)C(F)(F)F (stereo not shown) | 251 nM | 97% | – |
| CCCCC(=O)c1cn(CCCN2CCC(Oc3ccccc3Cl)CC2)c2ccc(OC)cc12 | 251 nM | 92% | – |
| CCCOC1CCN(CCCn2cc(C(C)=O)c3ccc(Br)cc32)CC1 | 251 nM | 107% | – |
| CC(=O)c1cn(CCCN2CCC(c3nc(-c4ccncc4)no3)CC2)c2c(Cl)cccc12 | 251 nM | 108% | – |
| CC(=O)c1cn(CCCN2CCCN(CCc3ccccc3)CC2)c2ncccc12 | 251 nM | 84% | – |
| CCC(=O)c1cn(CCCN2CCC(c3ccccc3OC)CC2)c2ccccc12 | 316 nM | 59% | – |
| CC(=O)c1cn(CCCN2CCC3(CC2)CC(=O)c2ccccc2O3)c2c(C)cccc12 | 316 nM | 71% | – |
| COc1cccc2c(C(C)=O)cn(CCCN3CCC4(CC3)C(=O)NCN4c3ccccc3)c12 | 316 nM | – | 38% |
| CC(C)CC(=O)c1cn(CCCN2CCC(Oc3ccc(Cl)cc3)CC2)c2ccccc12 | 316 nM | 112% | – |
| CCCCC(=O)c1cn(CCCN2CCC(c3ccccc3OC)CC2)c2ccc(OC)cc12 | 316 nM | 101% | – |
| CCC(=O)c1cn(CCCN2CCC(Oc3ccccc3Cl)CC2)c2ccccc12 | 316 nM | 76% | – |

| SMILES | IC50 | Emax [1] | Emax |
| --- | --- | --- | --- |
| CCCCC1CCN(CCCn2cc(C(C)=O)c3cccc(Cl)c32)CC1 | 316 nM | 80% | – |
| CC(=O)c1cn(CCCCN2CCC(c3nc4ccccc4s3)CC2)c2ccccc12 | 398 nM | 81% | – |
| CCCCC1CCN(CCCn2cc(C(=O)CC(C)C)c3ccccc32)CC1 | 398 nM | 85% | – |
| CCOC(=O)C1CCN(CCCn2cc(C(C)=O)c3cccc(OC)c32)CC1 | 398 nM | 127% | – |
| O=C(c1cn(CCCN2CCC(c3nc4ccccc4s3)CC2)c2ccccc12)C(F)(F)F | 398 nM | 88% | – |
| CC(=O)c1c(C)n(CCCN2CCCN(Cc3ccc(F)cc3)CC2)c2c(Br)cccc12 | 398 nM | 49% | – |
| COc1ccc2c(C(C)=O)cn(CCCN3CCC(Oc4ccc(Cl)cc4)CC3)c2c1 | 398 nM | 67% | – |
| CCCCC1CCN(CCCn2cc(C(C)=O)c3cc(OC)ccc32)CC1 | 398 nM | 118% | – |
| COc1cccc2c(C#N)cn(CCCN3CCN(c4ncc(C(F)(F)F)cc4Cl)CC3)c12 | 398 nM | 97% | – |
| CC(=O)c1cn(CC(C)CN2C3CCC2CC(OCC2CC2)C3)c2ccccc12 (stereo not shown) | 398 nM | 65% | – |
| CC(=O)c1cn(CCN2CCC(Cc3ccccc3)CC2)c2ccccc12 | 398 nM | 77% | – |
| CC(=O)c1cn(CCCN2CCC(c3nc(-c4ccccc4)no3)CC2)c2c(Br)cccc12 | 501 nM | 69% | – |
| CC(=O)c1cn(CCCN2CCN(CCOc3ccccc3)CC2)c2c(Br)cccc12 | 501 nM | 91% | – |
| COc1ccc2c(c1)c(C(C)=O)cn2CCCN1CCC(Oc2ccc(Cl)cc2)CC1 | 501 nM | 104% | – |
| COc1ccc2c(C(C)=O)cn(CCCN3C4CCC3CC(OC3=CC=C(Cl)CC3)C4)c2c1 (stereo not shown) | 501 nM | 108% | – |
| CC(C)CNC(=O)c1cn(CCCN2CCC(Oc3ccc(F)cc3)CC2)c2ccccc12 | 501 nM | – | 94% |
| O=C(c1cn(CCCN2C3CCC2CC(OCC2CC2)C3)c2ccccc12)C(F)(F)F (stereo not shown) | 501 nM | 103% | – |
| CC(=O)c1cn(CC(C)CN2CCC(Oc3ccc(F)cc3)CC2)c2ccccc12 (stereo not shown) | 501 nM | 98% | – |
| CCCCC1CCN(CCCn2cc(C(=O)C(F)(F)F)c3ccccc32)CC1 | 501 nM | 74% | – |
| COc1ccc2c(c1)c(C(C)=O)cn2CCCN1CCN(C(C)c2ccccc2)CC1 (stereo not shown) | 501 nM | 77% | – |
| CC(=O)c1cn(CCCN2C3CCC2CC(OCC2CC2)C3)c2cc(Br)ccc12 (stereo not shown) | 501 nM | 130% | – |
| COc1ccccc1C1CCN(CCCn2cc(C(C)=O)c3cccc(Cl)c32)CC1 | 501 nM | 103% | – |
| CC(=O)c1cn(CCCN2C3CCC2CC(CC(=O)c2ccc(Cl)cc2)C3)c2c(Cl)cccc12 (stereo not shown) | 501 nM | 41% | – |
| COc1cccc2c(C(C)=O)cn(CCCN3CCN(CC4CCCO4)CC3)c12 (stereo not shown) | 631 nM | 98% | – |
| CCCOC1CCN(CC(C)Cn2cc(C(C)=O)c3ccccc32)CC1 (stereo not shown) | 631 nM | 74% | – |
| CC(=O)c1cn(CCCN2CCC(c3nc(-c4cccnc4)no3)CC2)c2c(Cl)cccc12 | 631 nM | 101% | – |
| O=C(c1ccccc1)C1CCN(CCCn2cc(C(=O)C(F)(F)F)c3ccccc32)CC1 | 631 nM | 63% | – |

| SMILES | IC50 | Emax [1] | Emax |
| --- | --- | --- | --- |
| COc1ccccc1C1CCN(CCCn2cc(C(=O)CC(C)C)c3ccccc32)CC1 | 631 nM | 100% | – |
| CCCCC1CCN(CCCn2cc(C(C)=O)c3ccc(OC)cc32)CC1 | 631 nM | 63% | – |
| COc1ccc2c(c1)c(C(C)=O)cn2CCCN1CCC(Oc2ccc(F)cc2)CC1 | 631 nM | 58% | – |
| CCCCC1CCN(CCCn2cc(CCC(C)=O)c3ccccc32)CC1 | 631 nM | 76% | – |
| CC(=O)c1cn(CCCN2CCN(CCOc3ccccc3)CC2)c2ncccc12 | 631 nM | 81% | – |
| CC(=O)c1cn(CCCN2C3CCC2CC(Oc2ccccc2Cl)C3)c2c(C)cccc12 (stereo not shown) | 794 nM | 101% | – |
| CCCCC(=O)c1cn(CCCN2CCC(C(=O)c3ccccc3)CC2)c2ccc(OC)cc12 | 794 nM | – | 98% |
| CCC(=O)c1cn(CCCN2CCC(Oc3ccc(F)cc3)CC2)c2ccccc12 | 794 nM | 90% | – |
| COc1ccc2c(C(C)=O)cn(CCCN3CCC(C(=O)c4ccccc4)CC3)c2c1 | 794 nM | 66% | – |
| O=C(c1cn(CCCN2CCC(Oc3ccc(F)cc3)CC2)c2ccccc12)C(F)(F)F | 794 nM | 75% | – |
| CC(=O)c1cn(CC(C)CN2CCN(C(C)c3ccccc3)CC2)c2ccccc12 (stereo not shown) | 1000 nM | 35% | – |
| CCCCC1CCN(CCCn2cc(C(=O)CC)c3ccccc32)CC1 | 1000 nM | 92% | – |
| COc1ccc2[nH]c3c(c2c1)CCN(CCCn1cc(C(=O)CC(C)C)c2ccccc21)C3 | 1000 nM | – | 123% |
| COc1ccc2c(c1)c(C(C)=O)cn2CCCN1CCC(C(=O)c2ccccc2)CC1 | 1000 nM | 72% | – |
| COc1ccc2c(c1)c(C(C)=O)cn2CCCN1CCC(Oc2ccccc2Cl)CC1 | 1000 nM | 95% | – |
| COc1cccc2c(C(C)=O)cn(CCCN3CCC4CCCCC4C3)c12 (stereo not shown) | 1000 nM | 69% | – |
| CC(=O)c1cn(CCCN2CCCC(Oc3ccc(Cl)cc3)C2)c2c(Br)cccc12 (stereo not shown) | 1260 nM | 46% | – |
| CC(=O)CCc1cn(CCCN2CCC(Oc3ccc(F)cc3)CC2)c2ccccc12 | 1260 nM | 80% | – |
| CCCCC(=O)c1cn(CCCN2CCN(C(C)c3ccccc3)CC2)c2ccc(OC)cc12 (stereo not shown) | 1260 nM | 81% | – |
| COc1ccc2c(c1)c(C(C)=O)cn2CCCN1C2CCC1CC(Oc1ccc(Cl)cc1)C2 (stereo not shown) | 1260 nM | 105% | – |
| CCCOC1CCN(CCCn2cc(C(C)=O)c3ccc(OC)cc32)CC1 | 1260 nM | 61% | – |
| CC(=O)c1cn(CCCN2CCC(Oc3ccc(Cl)cc3)CC2)c2cc(Br)ccc12 | 1260 nM | 74% | – |
| CC(=O)c1c(C)n(CCCN2CCN(CCOc3ccccc3)CC2)c2c(Br)cccc12 | 1260 nM | 57% | – |
| CC(=O)c1cn(CCCN2CCN(C(C)c3ccccc3)CC2)c2ccc(Br)cc12 (stereo not shown) | 1260 nM | 72% | – |
| O=C(c1cn(CCCN2CCC(Oc3ccc(Cl)cc3)CC2)c2ccccc12)C(F)(F)F | 1580 nM | 77% | – |
| CCC(=O)c1cn(CCCN2CCC(Cc3ccccc3)CC2)c2ccccc12 | 1580 nM | 109% | – |
